The record followed here is patent publication US12410160B2 (Gilead Sciences, Inc., priority 2021, dated 2025).

Structures are written as SMILES. Like-named read-outs stand apart in the source and are kept apart here.

For orientation: IC50 means the concentration at which inhibition is half-maximal. In general, EC50 refers to the concentration needed to bring the measured effect to its halfway point.

One assay addresses human OATP1B1 (Homo sapiens (Human), UniProt Q9Y6L6). In words: In Vitro Inhibition Assessment with Human OATP1B1 Transporter. The assay is classed as in vitro ADME. The following applies: HEK293-OATP1B1 cells, probe substrate pravastatin. As to the method:
In Vitro Inhibition Assessment with Human OATP1B1 and OATP1B3 Transporters Assay Protocol
The purpose of this assay was to assess the inhibition potential of test article (TA) toward human OATP1B1 and OATP1B3 transporters in vitro using cell lines transfected with the individual transporters. The assays used clinically relevant probe substrate pravastatin and a known positive control inhibitor rifampicin. HEK293 mock, HEK293-OATP1B1, and HEK293-OATP1B3 transfected cells were seeded onto CellCoat Poly-D-Lysine coated 96 well black cell culture plates with clear bottoms (Greiner bio-one, Cat. #655946) at a density of 70,000 cells/well and cultured to confluency overnight. Seeding media used was Dulbecco's Modification of Eagle's Medium (DMEM—with GlutaMAX high glucose; Gibco, Cat #: 10569-010) supplemented with 10% fetal bovine serum, 0.1 mM non-essential amino acids, 100 U/mL penicillin, and 100 μg/mL streptomycin. On assay day, media were removed from the assay plates and cells were washed with Hanks' Balanced Salt Solution (HBSS Buffer) (Corning, Cat. #21-023-CV). All TAs and reference inhibitor were serially diluted in DMSO to create spiking solutions at concentrations of 250-fold of final assay concentrations (final DMSO content 0.4%). Cells were preincubated with HBSS buffer containing test compounds for 15 minutes. After the removal of HBSS buffer, dose solution containing TA or reference inhibitor and probe substrate were added to the HEK293-OATP1B1, HEK-293-OATP1B3 and its associated mock cell plate, respectively. The co-incubation period of TAs with the corresponding probe substrate for all plates was 5 minutes. An aliquot of the dose solution was removed from the HEK293 mock cell plates and analysed for dose recovery. Cells were then washed three times with ice cold HBSS buffer and then immediately extracted with methanol:water (70:30 v:v) containing internal standard labetolol (30 nM). The supernatants were evaporated to dryness on injection plates and reconstituted in 80% water containing 20% acetonitrile and 0.1% formic acid for analysis by liquid chromatography with tandem mass spectrometry (LC-MS-MS).
Fractional transport activities were calculated from the equation: Activity %=(A−B)/(C−D)×100
• A: translocated amount of substrate in the presence of TA on transfected cells • B: translocated amount of substrate in the presence of TA on Mock cells • C: translocated amount of substrate in the presence of solvent on transfected cells • D: translocated amount of substrate in the presence of solvent on Mock cells
GraphPad Prism 7.0 (GraphPad Software Inc., San Diego, CA) was used for curve fitting and determination of reaction parameters. In uptake transporter inhibition assays, the IC50 (μM) was calculated, where applicable. IC50 was defined as the concentration of TA required to inhibit maximal activity by 50%.

The next assay concerns the target human KHK-C (Homo sapiens (Human), UniProt P50053). The experiment in a line: KHK Biochemical Assay (IC50), ADP-Glo, KHK-C. The settings on record: average of at least two separate assays. The gist of the method:
(§1)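 His-tagged enzyme expressed in BL21 (DE3), Ni-NTA purified. Compounds, serially diluted 1:3 in DMSO, pre-incubated 30 min with enzyme in 50 mM Hepes pH 7.4, 140 mM KCl, 5 mM MgCl2, 0.01% Triton-X, then ATP and fructose added; 4 h at room temperature. ADP formation read by ADP-Glo luminescence.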
On the technique in general: ADP-Glo first removes unused ATP, then detects ADP through luciferase.

The next assay concerns the target human KHK-A (Homo sapiens (Human), UniProt P50053). The experiment in a line: KHK Biochemical Assay (IC50), ADP-Glo, KHK-A. The following applies: average of at least two separate assays. The essentials: as §1
The test system of a further assay is HepG2 cells. The experiment in a line: F1P Cell-Based Assay (EC50), 13C6-fructose-1-phosphate in HepG2 cells (cell culture medium or 50% human plasma).
The target in assay [1] is KHK-C expressed in NRK-52E cells (Homo sapiens (Human), UniProt P50053). The experiment in a line: KHK-C Cell-based Assay (EC50), NRK CTG, fructose-mediated ATP-depletion.
Chain of KHK-C expressed in NRK-52E cells (P50053 whole entry): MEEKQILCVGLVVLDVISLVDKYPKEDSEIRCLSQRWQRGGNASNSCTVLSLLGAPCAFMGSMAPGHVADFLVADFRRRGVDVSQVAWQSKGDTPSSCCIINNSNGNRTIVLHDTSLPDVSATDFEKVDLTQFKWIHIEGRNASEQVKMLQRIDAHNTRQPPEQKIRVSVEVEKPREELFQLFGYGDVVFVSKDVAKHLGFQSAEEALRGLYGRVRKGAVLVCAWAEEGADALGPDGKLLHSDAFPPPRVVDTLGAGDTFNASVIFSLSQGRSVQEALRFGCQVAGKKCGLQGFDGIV
Where [2] appears, read: Homo sapiens, HepG2, HepG2 cells, 50% human plasma, read-out: F1P 50% HP EC50.
[3] abbreviates: Homo sapiens, HepG2, read-out: F1P 10% FBS EC50, HepG2 cells, cell culture medium (10% FBS).

Chain of human KHK-A (P50053 other isoform, or with tags, fused parts or gaps): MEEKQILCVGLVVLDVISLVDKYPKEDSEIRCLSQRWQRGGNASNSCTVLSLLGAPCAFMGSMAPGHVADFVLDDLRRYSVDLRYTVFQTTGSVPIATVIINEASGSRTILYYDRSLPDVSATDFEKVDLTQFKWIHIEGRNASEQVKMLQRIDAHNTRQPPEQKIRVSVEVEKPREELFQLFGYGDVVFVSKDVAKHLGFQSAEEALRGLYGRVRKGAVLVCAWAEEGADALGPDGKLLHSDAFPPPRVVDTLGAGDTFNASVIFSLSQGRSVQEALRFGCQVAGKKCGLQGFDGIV
Chain of human KHK-C (P50053 whole entry): as the sequence (P50053 whole entry) above
Chain of human OATP1B1 (Q9Y6L6 whole entry): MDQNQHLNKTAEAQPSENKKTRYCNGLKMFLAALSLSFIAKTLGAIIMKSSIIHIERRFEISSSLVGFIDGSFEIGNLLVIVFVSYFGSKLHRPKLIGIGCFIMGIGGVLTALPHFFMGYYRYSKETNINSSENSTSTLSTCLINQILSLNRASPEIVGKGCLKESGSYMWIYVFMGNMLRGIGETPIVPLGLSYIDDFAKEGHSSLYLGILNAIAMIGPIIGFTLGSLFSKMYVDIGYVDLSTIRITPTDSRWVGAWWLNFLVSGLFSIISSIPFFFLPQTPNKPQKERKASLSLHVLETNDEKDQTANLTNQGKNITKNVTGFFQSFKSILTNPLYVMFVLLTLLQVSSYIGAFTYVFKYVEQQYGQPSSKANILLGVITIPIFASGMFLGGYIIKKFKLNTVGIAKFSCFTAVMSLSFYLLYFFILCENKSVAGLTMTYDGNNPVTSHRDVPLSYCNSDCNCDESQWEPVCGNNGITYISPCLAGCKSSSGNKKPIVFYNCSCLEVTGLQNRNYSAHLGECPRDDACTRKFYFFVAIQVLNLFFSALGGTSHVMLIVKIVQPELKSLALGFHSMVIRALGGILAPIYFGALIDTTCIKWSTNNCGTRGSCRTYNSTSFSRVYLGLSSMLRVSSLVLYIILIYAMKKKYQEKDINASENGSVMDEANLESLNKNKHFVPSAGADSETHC

With `COc1cc(-c2nc(N3C[C@@H](O)[C@@H]3C)nc3c2CCC3(F)F)cc2c1[C@@H](NS(C)(=O)=O)CO2` (single isomer, unassigned) [Example 479], the IC50 at human OATP1B1 was 994 nM; on human KHK-C, 0.7 nM; against human KHK-A it was 7.3 nM. Besides, the EC50 in the assay with HepG2 cells (HepG2 cells, 50% human plasma, read-out: F1P 50% HP EC50) turned out to be 28.3 nM; in the assay with HepG2 cells (read-out: F1P 10% FBS EC50, HepG2 cells, cell culture medium (10% FBS)), 11 nM.

On to `C[C@H]1[C@H](O)CN1c1nc(-c2ccc([C@]3(N)CCOC3)cc2)c2c(n1)C(F)(F)CC2` (single isomer, unassigned) [Example 518], for which the IC50 was 27100 nM against human OATP1B1, 1.1 nM at human KHK-C and 2.3 nM at human KHK-A. Also, the EC50 in the assay on HepG2 cells (setting [2]) was found to be 3 nM; in the assay with HepG2 cells (setting [3]), 3.7 nM.

In assay [1], `C[C@H]1[C@H](O)CN1c1nc(-c2ccc(C(N)=O)c(OC(F)F)c2)c2c(n1)C(F)(F)CC2` [Example 182, 4-(7,7-difluoro-2-((2S,3R)-3-hydroxy-2-methylazetidin-1-yl)-6,7-dihydro-5H-cyclopenta[d]pyrimidin-4-yl)-2-(difluoromethoxy)benzamide] showed an EC50 of 156 nM. In addition, the IC50 came out at 2840 nM against human OATP1B1 and 10.2 nM against human KHK-C (ADP-Glo).

In assay [1], `C[C@H]1[C@H](O)CN1c1nc(-c2ccc3c(c2)C(=O)N(C)C3)c2c(n1)C(F)(F)CC2` [Example 236, 6-(7,7-difluoro-2-((2S,3R)-3-hydroxy-2-methylazetidin-1-yl)-6,7-dihydro-5H-cyclopenta[d]pyrimidin-4-yl)-2-methylisoindolin-1-one] returned a concentration giving a half-maximal response (EC50) of 31.3 nM. 1390 nM corresponded to half-maximal inhibition on human OATP1B1 (IC50).

`C[C@H]1CCN1c1nc2c(c(-c3cc4c(N)nccc4s3)n1)CCC2` [Example 446, 2-[2-[(2S)-2-methylazetidin-1-yl]-6,7-dihydro-5H-cyclopenta[d]pyrimidin-4-yl]thieno[3,2-c]pyridin-4-amine]: the EC50 in assay [1] stood at 5 nM. Further, the values for the IC50 at human OATP1B1 and at human KHK-C were 1810 nM and 3.4 nM, respectively.

As for `C[C@H]1[C@H](O)CN1c1nc(-c2ccc3c(c2)CC[C@@H]3NS(C)(=O)=O)c2c(n1)C(F)(F)CC2` [Example 472, N—((S)-5-(7,7-difluoro-2-((2S,3R)-3-hydroxy-2-methylazetidin-1-yl)-6,7-dihydro-5H-cyclopenta[d]pyrimidin-4-yl)-2,3-dihydro-1H-inden-1-yl)methanesulfonamide], the figures for the IC50 at human OATP1B1, against human KHK-C and on human KHK-A were 6220 nM, 0.9 nM and 12.7 nM, respectively. Moreover, the EC50 in the assay on HepG2 cells (setting [2]) stood at 39.4 nM; with HepG2 cells (setting [3]) it was 13.3 nM.

Turning to `C[C@H]1[C@H](O)CN1c1nc(-c2ccc3c(c2)COC[C@@H]3NS(C)(=O)=O)c2c(n1)C(F)(F)CC2` [Example 487, N—((R)-7-(7,7-difluoro-2-((2S,3R)-3-hydroxy-2-methylazetidin-1-yl)-6,7-dihydro-5H-cyclopenta[d]pyrimidin-4-yl)isochroman-4-yl)methanesulfonamide], the IC50 stood at 9770 nM at human OATP1B1, 1.6 nM against human KHK-C and 14 nM against human KHK-A. Besides, the EC50 is 72.4 nM with HepG2 cells (setting [2]) and 11.9 nM in the assay with HepG2 cells (setting [3]).

`C[C@H]1[C@H](O)CN1c1nc(-c2ccc3c(c2)S(=N)(=O)CCNC3)c2c(n1)C(F)(F)CC2` (stereo partly shown) [Example 725]: the IC50 at human OATP1B1 was > 40000 nM; against human KHK-C, 0.9 nM; against human KHK-A, 2.2 nM. For the same compound, the half-maximal effective concentration (EC50) amounted to 37.7 nM in the assay with HepG2 cells (Homo sapiens, HepG2, read-out: F1P 10% FBS EC50) and 23.5 nM in the assay with HepG2 cells (Homo sapiens, HepG2, read-out: F1P 50% HP EC50).

Consider `COC(=O)NC1COc2cc(-c3nc(N4C[C@@H](O)[C@@H]4C)nc4c3CCC4(F)F)ccc21` (stereo partly drawn) [Example 806, methyl N-[6-[7,7-difluoro-2-[(2S,3R)-3-hydroxy-2-methyl-azetidin-1-yl]-5,6-dihydrocyclopenta[d]pyrimidin-4-yl]-2,3-dihydrobenzofuran-3-yl]carbamate], for which the IC50 against human OATP1B1 turned out to be 660 nM; against human KHK-C (ADP-Glo) it was 1.6 nM. Besides, the EC50 with HepG2 cells (setting [2]) was found to be 113 nM; in the assay on HepG2 cells (setting [3]) it was 61.6 nM.
